Source: patent US20080039392A1, “CRAC channel and modulator screening methods” (THE REGENTS OF THE UNIVERSITY OF CALIFORNIA, priority 2006, published 2008)
“Also recorded” adds a separate entry of the source.

Key:
[1] = tested on: CRAC current in olf186-F+Stim transfected S2 cells; test: Whole-cell recording of CRAC current in S2 cells co-transfected with olf186-F (WT Orai) + Stim; type: cell-based, Drosophila; conditions: for CRAC current density: at −130 mV, high-Ca2+ pipette solution, 10 μM IP3 in pipette or TG in bath
Description: Whole-cell recording. Patch-clamp experiments were performed at room temperature in the standard whole-cell recording configuration. The membrane capacitance (a measure of cell surface area) of S2 cells selected for recording was 9.15±0.27 pF (mean ±SEM, n=287 cells, 22 experiments). To calculate current densities, peak current amplitudes were divided by membrane capacitance for each cell.
(§1) Cells transfected (Amaxa) with Orai and Stim constructs were identified by fluorescence of co-transfected GFP. Patch clamp experiments were performed at room temperature in the standard whole-cell recording, using conditions similar to those reported previously^10. The membrane capacitance of S2 cells selected for recording was 11.6±0.4 pF (n=131 cells). Membrane potentials were corrected for a liquid junction potential of 10 mV between the pipette and bath solution. The series resistance (2-7 MΩ) was not compensated. The membrane potential was held at −10 mV, and 220-ms voltage ramps from −130 to 90 mV alternating with 220-ms pulses to −130 mV were delivered every 2 s. Only cells with high input (>2 GΩ) were selected for recording. External and pipette solution recipes are listed in supplementary table 1. Analyzed data are presented as mean ±SEM.
(§2) Data were analyzed by Pulse (Heka Electronics) and Origin (OriginLab Corp.). Five I-V curves were averaged for display. […] Since almost all S2 cells at the moment of break-in display an outward current that disappears during perfusion with internal solution (but before the inward CRAC current starts to develop), the following procedure for leak subtraction was employed. The first three ramp currents after the outward current subsided were averaged (Imid). Then, another set of three ramps after maximal inward CRAC current had developed were averaged (Imax). The difference between Imax and Imid represents an isolated CRAC current but with amplitude less than the actual one. To correct this the difference was scaled such that the value of current at −130 mV is equal to maximal inward current minus initial inward current. Then the scaled difference was subtracted from Imax followed by fitting with a polynomial function. This fit was considered as the basal leak current. […] In this case a linear I-V curve reversing at 0 mV with current magnitude at +90 mV equal to the sustained outward current was assigned as leak current. For E180D Orai-induced CRAC current, the initial current was considered as leak.

E180D Orai mutant + Stim = target: T1, E180D Orai mutant + Stim (Drosophila melanogaster, UniProt Q9U6B8, E178D); test: Whole-cell recording of E180D Orai-induced CRAC current in S2 cells; type: cell-based; conditions: for effect of divalent cation on E180D Orai-induced current: 20 mM external divalent vs 2 mM Ca2+; for IC50: scaled to current in divalent-free solution
T1 construct: A cDNA clone, pAc5.1/olf186-F, encoding full-length Drosophila olf186-F-RB; expressed in transfected cells; host or cells: Drosophila S2 cells (Invitrogen)
Source text: (§3) Generation of pAc5.1/EGFP, pAc5.1/D-STIM, pAc5.1/D-STIM-V5-His and pAc5.1/olf186-F (GenBank accession number DQ503470) were as described^5. olf186-F pore mutants were made by exchanging the corresponding codons (E180A: GAG to GCG; E180D: GAG to GAC; D184A: GAT to GCT; D186A: GAT to GCT; N188A: AAT to GCT; FIG. 14) using the QuikChange site-directed mutagenesis kit (Stratagene). The pAc5.1/HA-olf186-F clone was made by adding the HA tag via PCR and re-cloned into the XhoI and NotI sites of pAc5.1/V5-His B expression vector. Resulting clones were confirmed by sequencing. Description of the primers and conditions for cloning is available upon request. Both HA-olf186-F and Stim-V5-His were verified for normal function by whole-cell recording.
as §1, §2

[2] = target: T2, D184A, D186A, N188A Orai mutants + Stim (Drosophila melanogaster, UniProt Q9U6B8, N186A); test: Whole-cell recording of CRAC current of charge-neutralizing Orai mutants, block by Gd3+; type: cell-based; conditions: N188A Orai
T2 construct: A cDNA clone, pAc5.1/olf186-F, encoding full-length Drosophila olf186-F-RB; expressed in transfected cells; host or cells: Drosophila S2 cells (Invitrogen)
Source text: as §3, §1

[3] = target: T3, D184A, D186A, N188A Orai mutants + Stim (Drosophila melanogaster, UniProt Q9U6B8, D182A); test: as above; type: cell-based; conditions: D184A Orai
T3 construct: A cDNA clone, pAc5.1/olf186-F, encoding full-length Drosophila olf186-F-RB; expressed in transfected cells; host or cells: Drosophila S2 cells (Invitrogen)
Source text: as §3, §1

[4] = target: T4, D184A, D186A, N188A Orai mutants + Stim (Drosophila melanogaster, UniProt Q9U6B8, D184A); test: as above; type: cell-based; conditions: D186A Orai
T4 construct: A cDNA clone, pAc5.1/olf186-F, encoding full-length Drosophila olf186-F-RB; expressed in transfected cells; host or cells: Drosophila S2 cells (Invitrogen)
Source text: as §3, §1

Drosophila S2 cells = test: Single-cell ratiometric fura-2 [Ca2+]i imaging; type: cell-based; conditions: ionomycin in zero-Ca2+ solution, control cells
Description: RNAi in Drosophila S2 cells. RNAi experiments were adapted from the protocols described by Worby et al. (2). Drosophila S2 cells (0.5×10^6) were seeded in T-25 flasks in 2 ml of complete S2 media. The next day, media was removed and replaced with 2 ml serum-free S2 media. 20 μg dsRNA was added and cells were incubated at room temperate for 45 min with gentle rocking. 4 ml S2 media was added and cells were incubated for 5 days at 24° C. Cells were then harvested and either plated for single cell Ca^2+ imaging and patch-clamp experiments or processed for RT-PCR analysis.
Single-cell [Ca2+]i imaging. Ratiometric [Ca2+]i imaging was performed as described, using solution recipes described in Table 3. Transfected cells were recognized by co-expressed enhanced green fluorescent protein (EGFP), using filters to avoid contamination of Fura-2 fluorescence by bleed-through of GFP fluorescence. Data were analysed with Metafluor software (Universal Imaging) and OriginPro 7.5 software (OriginLab) and are expressed as means ±SEM.

[5] = tested on: Stim-Orai protein interaction; test: Co-immunoprecipitation of Stim and Orai; type: cell-based, Drosophila; conditions: Ca2+ store depletion, 1 μM TG 15 min
Description: Two days after transfection, 5×10^6 cells were treated with either Ringer or zero-Ca^2+ Ringer+1 μM TG using solutions described^6 for 15 min at room temperature. Cells transfected with Stim-V5-His only or HA-olf186-F only were used as controls. Cell extracts were then prepared using RIPA lysis buffer (Upstate) according to manufacturer instructions. The extracts were pre-cleared with protein A/G beads (Pierce) and protein concentration was determined, using the Pierce BCA Protein Reagent Kit. The cell lysate was then diluted to approximately 1 mg/ml total protein with PBS and mixed with either anti-HA monoclonal antibodies (1 μg/100 μg total protein, Santa Cruz) or anti-V5 monoclonal antibodies (1 μg/100 μg total protein, Invitrogen) for 4 hr at 4° C. Equal amount of samples were mixed with either normal mouse IgG or vehicle as negative controls. Protein A/G beads were subsequently added (1 μl/1 μg IgG) to rock overnight at 4° C. Proteins were eluted by boiling in 4× sample buffer (Invitrogen). Samples were resolved by SDS-PAGE and analyzed by standard western blotting techniques. Anti-HA monoclonal antibodies (Santa Cruz) were used at a dilution of 1:200. Anti-V5 monoclonal antibodies (Invitrogen) were used at a dilution of 1:2500. Proteins were detected by developing with the SuperSignal (Pierce) detection system.

T1 sequence (Q9U6B8 whole entry E178D): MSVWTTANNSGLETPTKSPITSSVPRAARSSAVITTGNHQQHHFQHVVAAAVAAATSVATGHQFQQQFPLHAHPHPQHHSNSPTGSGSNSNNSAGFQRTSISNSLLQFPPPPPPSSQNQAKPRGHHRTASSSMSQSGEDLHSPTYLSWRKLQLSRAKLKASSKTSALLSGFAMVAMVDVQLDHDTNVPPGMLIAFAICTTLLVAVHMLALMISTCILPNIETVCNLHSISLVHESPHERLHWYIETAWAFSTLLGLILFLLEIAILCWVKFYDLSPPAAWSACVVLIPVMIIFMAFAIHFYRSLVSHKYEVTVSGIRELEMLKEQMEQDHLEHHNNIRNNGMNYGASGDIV
T1 sequence (P83094 24-570, further chain): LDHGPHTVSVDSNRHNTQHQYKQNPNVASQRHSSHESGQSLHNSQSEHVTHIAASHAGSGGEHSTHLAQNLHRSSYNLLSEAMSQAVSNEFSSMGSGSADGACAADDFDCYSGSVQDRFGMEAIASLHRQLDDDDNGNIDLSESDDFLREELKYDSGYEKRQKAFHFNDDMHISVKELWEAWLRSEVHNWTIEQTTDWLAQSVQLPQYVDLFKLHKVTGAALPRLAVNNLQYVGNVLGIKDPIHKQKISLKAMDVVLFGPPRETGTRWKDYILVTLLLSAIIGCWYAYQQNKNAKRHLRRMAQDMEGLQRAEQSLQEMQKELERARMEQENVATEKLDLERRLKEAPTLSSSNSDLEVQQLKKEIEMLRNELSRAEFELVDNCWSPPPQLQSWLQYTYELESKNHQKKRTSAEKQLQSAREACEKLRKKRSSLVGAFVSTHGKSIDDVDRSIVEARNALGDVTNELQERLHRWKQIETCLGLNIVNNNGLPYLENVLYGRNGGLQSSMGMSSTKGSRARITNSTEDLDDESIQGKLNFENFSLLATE
T3 sequence (P83094 24-570): as the sequence (P83094 24-570, further chain) above
T3 sequence (Q9U6B8 whole entry D182A): as the sequence (Q9U6B8 whole entry E178D) above, with D178E, D182A counted along it
T4 sequence (P83094 24-570): as the sequence (P83094 24-570, further chain) above
T4 sequence (Q9U6B8 whole entry D184A): as the sequence (Q9U6B8 whole entry E178D) above, with D178E, D184A counted along it
T2 sequence (P83094 24-570): as the sequence (P83094 24-570, further chain) above
T2 sequence (Q9U6B8 whole entry N186A): as the sequence (Q9U6B8 whole entry E178D) above, with D178E, N186A counted along it

For `NCCOB(c1ccccc1)c1ccccc1` [2-APB, 2-aminoethyldiphenyl borate], the “effect on Ca2+ (CRAC) current” value ([1]; 5 μM) was “characteristic potentiation of current before blocking; also recorded: potentiated”, the “effect on Ca2+ (CRAC) current” value ([1]; 20 μM) was “blocked; also recorded: inhibited” and the “time course of E180D outward CRAC current” value (E180D Orai mutant + Stim; 5 μM) was “immediate decrease preceding potentiation”. For the same molecule, the “time course of E180D outward CRAC current” value (E180D Orai mutant + Stim; 20 μM) was “immediate increase preceding inhibition”.
In the case of `[Ba+2]` [Ba^2+], the “effect of divalent cation on E180D Orai-induced current” value (“effect of divalent cation” below) (E180D Orai mutant + Stim) is reported as “significantly increased the inward current while decreasing the outward current”.
With `[Ca+2]` [Ca^2+] the “effect of divalent cation” value (E180D Orai mutant + Stim) was “significantly decreased the outward current”, the IC50 (E180D Orai mutant + Stim; IC50, half-blocking Ca2+ concentration for inward current, at −130 mV) was 48 ± 13 µM and the IC50 (E180D Orai mutant + Stim; IC50, half-blocking Ca2+ concentration for outward current, at 90 mV) was 2050 ± 780 µM.
For `[Gd+3]` [Gd^3+], the “suppression of native and WT Orai-induced CRAC current” value [1] was “very effectively suppresses”, the “effect on enhanced Ca2+ current” value ([1]; 50 nM) was “blocked” and the “potency of Gd3+ block” value [2] was “to a lesser degree”. For the same molecule, the “potency of Gd3+ block” value [3] was “significantly reduced” and the “potency of Gd3+ block” value [4] was “significantly reduced”.
For `O=P(O)(O)O[C@@H]1[C@H](O)[C@H](O)[C@@H](OP(=O)(O)O)[C@H](OP(=O)(O)O)[C@H]1O` [IP3, inositol 1,4,5-trisphosphate], the CRAC current density [1] was −11.4±3.1 pA/pF.
With `[Mg+2]` [Mg^2+] the “effect of divalent cation” value (E180D Orai mutant + Stim) was “increased the current”.
`[Sr+2]` [Sr^2+] was tested, and the “effect of divalent cation” value (E180D Orai mutant + Stim) was “had little effect”.
In the case of `C[C@H](CCC(=O)O)C[C@H](C)C[C@H](C)C(=O)/C=C(\O)[C@H](C)C[C@H](C)C/C=C/[C@@H](C)[C@@H](O)[C@@H](C)[C@@H](O)C[C@@H]1CC[C@@](C)([C@H]2CC[C@@](C)([C@@H](C)O)O2)O1` [ionomycin], the “peak of Ca2+ release transient” value (Drosophila S2 cells) is reported as ~200 nM.
For `C/C=C(/C)C(=O)O[C@H]1C(C)=C2[C@H]([C@@H]1OC(=O)CCCCCCC)[C@@](C)(OC(C)=O)C[C@H](OC(=O)CCC)[C@@]1(O)[C@H]2OC(=O)[C@@]1(C)O` [thapsigargin], the CRAC current density [1] was −7.6±2.5 pA/pF and the “Stim-Orai protein interaction (co-immunoprecipitation)” value [5] was “dramatically increased”.
